Data published in PubChem BioAssay (NCI).
Several values for one entry are separate records, joined by “and”; a condition that tells them apart may be missing. Equal values may be shown once.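 Dose response: 5 concentrations. Exposure: 48 h. Format: 96-well plates. Endpoint: linear interpolation; highest concentration if not reached. GI50: concentration for 50% inhibition of growth. TGI: total growth inhibition.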

Experiments:
Assay in all cases: inhibition of tumour cell growth, NCI panel, 48 h
786-0 renal = test system: 786-0 renal
MALME-3M melanoma = test system: MALME-3M melanoma
COLO 205 colon = test system: COLO 205 colon
SK-MEL-5 melanoma = test system: SK-MEL-5 melanoma
M14 melanoma = test system: M14 melanoma
HT29 colon = test system: HT29 colon
HCT-15 colon = test system: HCT-15 colon
SNB-75 CNS = test system: SNB-75 CNS
K-562 leukemia = test system: K-562 leukemia
OVCAR-8 ovarian = test system: OVCAR-8 ovarian

SMILES	TGI (786-0 renal)	TGI (MALME-3M melanoma)	TGI (COLO 205 colon) [µM]	TGI (SK-MEL-5 melanoma)	TGI (M14 melanoma)	TGI (HT29 colon) [µM]	TGI (HCT-15 colon)	TGI (SNB-75 CNS) [µM]	TGI (K-562 leukemia) [µM]	TGI (OVCAR-8 ovarian)	GI50 (786-0 renal) [µM]	GI50 (MALME-3M melanoma) [µM]	GI50 (COLO 205 colon) [µM]	GI50 (SK-MEL-5 melanoma) [µM]	GI50 (M14 melanoma) [µM]	GI50 (HCT-15 colon) [µM]	GI50 (SNB-75 CNS) [µM]	GI50 (K-562 leukemia) [µM]	GI50 (OVCAR-8 ovarian) [µM]	GI50 (HT29 colon) [µM]
CC(/C=C/C(=O)c1sc(C(N)=S)nc1C)=C\c1ccccc1	> 100 µM	> 100 µM	> 100	> 100 µM	> 100 µM	> 100	> 100 µM	> 100	> 100	> 100 µM										
CN1CCN(Cc2ccc(NC(=O)c3[nH]ncc3Nc3ncnc4[nH]ccc34)cc2)CC1	2 µM	0.959 µM	0.427	0.778 µM	8.66 µM		62.7 µM	0.371	> 100	3.09 µM	0.301	0.472	0.193	0.25	0.473	1.01	0.0393	0.265	0.387	
Cc1ccc2oc(=O)c3c(O)c4cccc(OC5OC(C)C6O[C@@H](c7ccccc7)OC6C5OC5OC(C)C(O)C(O)C5O)c4c4oc(=O)c1c2c34 (some centres undefined)	1.09 µM and 1.91 µM	1.58 µM and 2.52 µM		1.09 µM and 0.7 µM	1.85 µM and 1.64 µM	5.12	1.5 µM and 5.01 µM	1.54	2.6	2.74 µM and 1.43 µM	0.0447	0.126	0.0807	0.114	0.409	0.261		0.0708	0.0562	
Cc1cc(=O)[nH]c(N/N=C/c2ccccc2O)n1	> 100 µM	> 100 µM	> 100	19.1 µM	26.3 µM	> 100	> 100 µM	> 100	> 100	> 100 µM	12.7	4.49	3.81	4.19	3.56	4.63	71.5	5.82	3.1	5.72
O=C1NC(=O)C(=Cc2cn(Cc3ccccc3)c3ccccc23)C(=O)N1	33 µM	45.7 µM	9.44	> 55.5 µM	44.4 µM	> 60.8	38.2 µM	27.1	> 48.6	43.8 µM	17.1	18.1	1.13	11.3	17.9	14.3	7.61	4.23	17.1	23.5
Cc1nc(NS(=O)(=O)c2ccc(NCN3C(=O)c4ccccc4C3=O)cc2)oc1C	> 100 µM	> 100 µM	> 100	> 100 µM	> 100 µM	> 100	> 100 µM	> 100	> 100	> 100 µM	> 100	> 100	> 100	> 100	> 100	> 100	> 100	> 100	> 100	> 100
CC1=NN(c2ccccc2)C(=O)C12[C@H](c1ccccc1)C2(C#N)C#N (some centres undefined)	6.18 µM	11.6 µM	4.42	14.3 µM	3.14 µM	17.1	13.9 µM	19.3	6.12	7.27 µM										
CN1CCN=C1c1nnn(-c2ccc([N+](=O)[O-])cc2)c1-c1ccccc1	> 100 µM	> 100 µM	> 100	> 100 µM	> 100 µM	> 100	> 100 µM	> 100	> 100	> 100 µM										
Cc1ccccc1-n1c(=S)[nH]c2c(sc(=O)n2-c2ccccc2C)c1=O	> 100 µM	> 100 µM	> 100	> 100 µM	> 100 µM	> 100	> 100 µM	> 100	> 100	> 100 µM										
COc1ccc(NC(=O)CC(=O)N/N=C(\C)c2cc3ccccc3oc2=O)cc1	> 100 µM	> 100 µM	> 100	> 100 µM	> 100 µM	> 100	> 100 µM	> 100	> 100	> 100 µM										
CCCCC#Cc1c(I)n(C2OC(CO[Si](C)(C)C(C)(C)C)C3OC(C)(C)OC32)c(=O)n(C(=O)c2ccccc2)c1=O (centres undefined)	14.5 µM	4.91 µM	3.14	27.2 µM	3.3 µM	> 100	> 100 µM	27.5	36.2	18.6 µM	3.25	2.5	1.59	14.2	1.6	1.63	14.1	15	5.61	28.4
C=C(C)[C@@H]1CCc2c(O)c(O)c(=O)cc(C)c2C1	> 100 µM	35 µM	15	3.49 µM	> 100 µM	> 100	> 100 µM	> 83.3	> 27.6	22.3 µM										
COc1ccc(Br)c(CN2CCc3ccccc32)c1OS(=O)(=O)c1ccc(C)cc1	> 100 µM	> 100 µM	33.8		> 100 µM		> 100 µM	88.8	> 100	> 100 µM										
N#CC1=C(N)NC(N2CCOCC2)=NC12Nc1ccccc1O2 (centres undefined)	60.1 µM	> 100 µM	> 100	> 100 µM	> 100 µM	> 100	> 100 µM	> 100	> 100	> 100 µM	21.5	> 100	67.7	22.7	39.6	38.2	> 100	39.2	80.6	47.2
COc1cc(C2c3cc4c(cc3OC(O)C2C)OCO4)cc(OC)c1OC (centres undefined)	> 100 µM	73.2 µM		9.98 µM	30.2 µM		> 100 µM	4.93	41.1	> 20.5 µM										
COc1ccc(C2NN=C3c4ccccc4CCC32)cc1 (centres undefined)	> 100 µM	38.4 µM	22.5	17.1 µM	> 100 µM	12.5	> 100 µM	5.58	> 100	> 100 µM	53.1	5.22	7.8	3.62	6.23	3.7	0.284	2.87	22.1	2.26
COc1c(OC)c(OC)c2c(=O)cc(-c3ccc(OC(C)C)cc3)oc2c1OC	> 49.3 µM	> 50.3 µM	> 50.2	25.5 µM	43.1 µM	> 49.4	> 54.8 µM	> 49.9	> 100	49.5 µM										

SMILES	TGI (786-0 renal)	TGI (MALME-3M melanoma)	TGI (COLO 205 colon) [µM]	TGI (SK-MEL-5 melanoma)	TGI (M14 melanoma)	TGI (HT29 colon) [µM]	TGI (HCT-15 colon)	TGI (SNB-75 CNS) [µM]	TGI (K-562 leukemia) [µM]	TGI (OVCAR-8 ovarian)	GI50 (786-0 renal) [µM]	GI50 (MALME-3M melanoma) [µM]	GI50 (COLO 205 colon) [µM]	GI50 (SK-MEL-5 melanoma) [µM]	GI50 (M14 melanoma) [µM]	GI50 (HCT-15 colon) [µM]	GI50 (SNB-75 CNS) [µM]	GI50 (K-562 leukemia) [µM]	GI50 (OVCAR-8 ovarian) [µM]	GI50 (HT29 colon) [µM]
CCCCCCCCCCCNC=O	> 100 µM	> 100 µM	> 100	92 µM	> 100 µM	> 100	71.8 µM	> 100	86.1	> 100 µM										
COc1cc(Cl)c(CC(=O)c2c[nH]c3ccccc23)cc1OC	> 100 µM	> 100 µM	> 100	> 100 µM	> 100 µM	> 100	> 100 µM	31.5	> 100	> 100 µM										
COC1=C(OC)C(=O)C(C/C=C(\C)CC/C=C(\C)CC/C=C(\C)CC/C=C(\C)CC/C=C(\C)CC/C=C(\C)CC/C=C(\C)CC/C=C(\C)CC/C=C(\C)CCC=C(C)C)=C(C)C1=O	> 100 µM	> 100 µM	> 100	> 100 µM	> 100 µM	> 100	> 100 µM	> 100	> 100	> 100 µM	> 100	> 100	> 100	> 100	> 100	> 100	> 100	> 100	> 100	> 100
CC12OC(C(=O)C13CC3)C1C(=O)c3c(O)ccc(O)c3C(=O)C12 (centres undefined)	6.56 µM	30.5 µM	35.8		30.2 µM	38.9	24.7 µM	40.8	34.6	36.1 µM	2.19	13.7	15.4		15.3	11	20.6	13.8	15.6	16.2
CC1=C(CO)C(=O)O[C@@H]([C@@H](C)[C@H]2CC[C@H]3[C@@H]4C[C@H]5O[C@]56[C@@H](O)C=CC(=O)[C@]6(C)[C@H]4CC[C@]23C)C1	1.73 µM	0.826 µM	0.81	2.79 µM	1.06 µM		1.94 µM	3.25	2.5	1.76 µM										
CC(=O)OCC1OC(n2c(=O)[nH]c(=O)c3n[nH]nc32)C(OC(C)=O)C(OC(C)=O)C1OC(C)=O (centres undefined)	> 100 µM	> 100 µM	> 100	> 100 µM	> 100 µM	> 100	> 100 µM		> 100	> 100 µM										
Cc1cc(=O)[nH]c(NNC(C#N)c2ccccc2O)n1 (centres undefined)	> 100 µM	> 100 µM	> 100	75.9 µM		> 100	> 100 µM	> 100	> 100	> 100 µM										
CCOC(=O)[C@@]12C(C)=CC(=O)O[C@]1(C)C1C(=O)NC(=O)C12 (some centres undefined)	> 100 µM	> 100 µM	> 100	> 100 µM	> 100 µM	> 100		> 100	> 100	> 100 µM										
NC1=NC(SCc2ccccc2CCl)c2ncn(Cc3ccccc3CCl)c2N1 (centres undefined)	3.97 µM	3.2 µM	3.49	3.25 µM		4.01	12.3 µM	5.47	10.2	5.09 µM	1.85	1.44	1.64	1.71		2.9	2.06	2.35	2.01	1.88
COC(=O)c1onc(C2OC(C)(C)OC2C(O)COC(c2ccccc2)(c2ccccc2)c2ccccc2)c1C(=O)OC (centres undefined)	> 100 µM	> 100 µM	> 100	> 100 µM	> 100 µM	> 100	> 100 µM		> 100	> 100 µM										
CCCCCCCC(=O)[O-].CCCCCCCC(=O)[O-].N.N.N.N.[Co+3].[O-][Cl+3]([O-])([O-])[O-]	> 100 µM	> 100 µM	> 100		> 100 µM		> 100 µM	> 100	> 100	> 100 µM	> 100	> 100	> 100		> 100	> 100	> 100	> 100	> 100	
C=C(C(=O)OC)[C@@H]1CC2OC1C(=O)C(C)CCC/C(C)=C/CC[C@@]2(C)O (some centres undefined)	31.5 µM	31.1 µM	78.7	> 100 µM	29.2 µM	> 100	> 100 µM		43.4	93.6 µM	15.2	10.9	25.1	37	15.8	29.1		18.9	28.1	36.5
CCOC(=O)c1sc2c(C(=O)OCC)n3cc(C)cc(C)c3c2c1O	> 100 µM	> 100 µM	> 100	> 100 µM	> 100 µM	> 100		> 100	> 100	> 100 µM										
O=C1C(Cl)=C(Cl)C(=O)N1c1ccc(Cl)c(Cl)c1Cl	> 100 µM	> 100 µM	> 100	> 100 µM	> 100 µM	> 100	> 100 µM	> 100	91.8											
CC(C)(C)c1ccc(C2CC(=O)C3=C(C2)Nc2ccccc2N(C(=O)c2ccccc2Cl)C3c2ccc(F)cc2)cc1 (centres undefined)	> 100 µM	> 100 µM	> 100	> 100 µM	> 100 µM		> 100 µM	> 100		> 100 µM	> 100	> 100	> 100	> 100	> 100	> 100	> 100		> 100	
COc1ccc(-c2cc3ccccc3[nH]c2=O)cc1OC	> 100 µM	> 100 µM	> 100		> 100 µM	> 100	> 100 µM	> 100	> 100	> 100 µM										
